This note sets out measurements from US10301280B2 (Plexxikon Inc., priority 2012, dated 2019).

For the test, the system named is BaF3-FL KIT D816V or BaF3-FL KIT V560G/D816V cell line. The experiment in a line: Cell-based assays of c-Kit mutant kinase activity (cell growth, ATPlite). The settings on record: at least one of the c-kit cell assays of Example 26. How it is done:
The c-Kit mutant D816V inhibitors were assessed using an engineered BaF3-FL KIT D816V or BaF3-FL KIT V560G/D816V cell line. The BaF3-FL KIT D816V cell lines were created by introduction of KIT mutant (D816V) full length constructs that render the cells dependent on the introduced kinase for growth. Inhibitors of c-Kit mutant D816V kinase reduce or eliminate the mediated c-kit mutant D816V kinase activation, resulting in reduced cell proliferation of the BaF3-FL Kit mutant D816V cells. This inhibition is measured by the effect of compound concentration on cell growth to assess IC50 values. BaF3-FL KIT D816V cells were seeded at 1×10^4 cells per well of a 96 well cell culture plate in 50 μl of cell culture medium of RPMI Medium 1X (Invitrogen #11875-093) supplemented with 10% FBS (Invitrogen #10438), 1% Non Essential Amino Acids(Invitrogen #11140), 1% Penicillin Streptomycin (Invitrogen #15140), 1% L-Glutamine (Invitrogen #25030-081). Compounds were dissolved in DMSO at a concentration of 5 mM and were serially diluted 1:3 for a total of eight points and added to the cells to a final maximum concentration of 10 μM in 100 μl cell culture medium (final concentration 0.2% DMSO). Cells were also treated with Dasatinib as a positive control. The cells were incubated at 37° C., 5% CO2 for three days. ATPlite Buffer (Perkin Elmer #6016739) and substrate were equilibrated to room temperature, and enzyme/substrate Recombinant Firefly Luciferase/D-Luciferin was reconstituted. The cell plates were equilibrated to room temperature for 30 minutes, then lysed by addition of 25 uL per well of the ATPlite Reagent. The plate was mixed for 5 minutes on a plate shaker to lyse the cells. The plates were read on a Tecan Safire using Luminescence protocol modified to read 0.1 s per well. The luminescence reading assesses the ATP content, which correlates directly with cell number such that the reading as a function of compound concentration is used to determine the IC50 value.
Plasmids P75635 and P75565 were engineered for mammalian cell expression. In both plasmids, full-length human v-kit Hardy-Zuckerman 4 feline sarcoma viral oncogene homolog gene (NCBI accession NM_000222, KIT, residues M1-V976) was subcloned into the pCI-Neo vector (Promega E1841). Plasmid P75635 contains the mutation of residue Aspartic acid 816 to Valine. Plasmid P75565 contains the double mutation of residues Valine 560 to Glycine and Aspartic acid 816 to Valine. The pCI-neo Mammalian Expression Vector carries the human cytomegalovirus (CMV) immediate-early enhancer/promoter region to promote constitutive expression of KIT and contains the neomycin phosphotransferase gene, a selectable marker.
It is understood that the results of these assays may vary as assay conditions are varied. Inhibition levels determined under the conditions described herein represent a relative activity for the compounds tested under the specific conditions employed. The cell based assays are likely to show variability due to the complexity of the system and the sensitivity thereof to any changes in the assay conditions. […] In some instances, the compounds were not tested in all of the assays, or assay results were not valid.
On the technique in general: In ATP-based viability assays light output follows the ATP content of the culture.
`Cc1n[nH]c(C(=O)Nc2cnc3[nH]c(-c4cccc(Cl)c4)cc3c2)c1C` [P-2095, N-[2-(3-chlorophenyl)-1H-pyrrolo[2,3-b]pyridin-5-yl]-3,4-dimethyl-1H-pyrazole-5-carboxamide] displayed an IC50 of less than 10 µM.

`CCN(CC)C(=O)c1cc(-c2cc3cc(NC(=O)c4n[nH]c(C)c4C)cnc3[nH]2)ccn1` [P-2230, 4-(5-(4,5-dimethyl-1H-pyrazole-3-carboxamido)-1H-pyrrolo[2,3-b]pyridin-2-yl)-N,N-diethylpicolinamide]: the 50% inhibitory concentration (IC50) is less than 10 µM.

Turning to `Cc1c(C(=O)Nc2cnc3[nH]c(-c4ccccc4)cc3c2)n[nH]c1C(F)(F)F` [P-2231, 4-methyl-N-(2-phenyl-1H-pyrrolo[2,3-b]pyridin-5-yl)-5-(trifluoromethyl)-1H-pyrazole-3-carboxamide], the 50% inhibitory concentration (IC50) is less than 10 µM.

`COc1ccccc1-c1cc2cc(NC(=O)c3[nH]nc(C)c3C)cnc2[nH]1` [P-2135, N-[2-(2-methoxyphenyl)-1H-pyrrolo[2,3-b]pyridin-5-yl]-3,4-dimethyl-1H-pyrazole-5-carboxamide] gave an IC50 of less than 10 µM.

Take `Cc1n[nH]c(C(=O)Nc2cnc3[nH]c(-c4ccnc(N5CCOCC5)c4)cc3c2)c1C` [P-2110, 3,4-dimethyl-N-[2-(2-morpholino-4-pyridyl)-1H-pyrrolo[2,3-b]pyridin-5-yl]-1H-pyrazole-5-carboxamide]: the IC50 is less than 10 µM.

Consider `Cc1n[nH]c(C(=O)Nc2cnc3[nH]c(-c4ccc(NS(C)(=O)=O)cc4)cc3c2)c1C` [P-2111, N-[2-[4-(methanesulfonamido)phenyl]-1H-pyrrolo[2,3-b]pyridin-5-yl]-3,4-dimethyl-1H-pyrazole-5-carboxamide], for which the half-inhibitory concentration (IC50) was less than 10 µM.

The molecule `Cc1cccc(-c2cc3cc(NC(=O)c4[nH]nc(C)c4C)cnc3[nH]2)c1` [P-2130, 3,4-dimethyl-N-[2-(m-tolyl)-1H-pyrrolo[2,3-b]pyridin-5-yl]-1H-pyrazole-5-carboxamide] registered an IC50 of less than 10 µM.

`Cc1[nH]nc(C(=O)Nc2cnc3[nH]c(-c4cncc(C(F)(F)F)c4)cc3c2)c1C` [P-2254, 4,5-dimethyl-N-(2-(5-(trifluoromethyl)pyridin-3-yl)-1H-pyrrolo[2,3-b]pyridin-5-yl)-1H-pyrazole-3-carboxamide] came in with an IC50 of less than 10 µM.

On to `Cc1[nH]nc(C(=O)Nc2cnc3[nH]c(-c4ccccc4)cc3c2)c1C(F)F` [P-2235, 4-(difluoromethyl)-5-methyl-N-(2-phenyl-1H-pyrrolo[2,3-b]pyridin-5-yl)-1H-pyrazole-3-carboxamide], for which the IC50 is less than 10 µM.

For `O=C(Nc1cnc2[nH]c(-c3ccc(F)cc3)cc2c1)c1cc(C(F)(F)F)n[nH]1` [P-2156, N-[2-(4-fluorophenyl)-1H-pyrrolo[2,3-b]pyridin-5-yl]-3-(trifluoromethyl)-1H-pyrazole-5-carboxamide], the IC50 is less than 10 µM.

Turning to `O=C(Nc1cnc2[nH]c(-c3ccccc3)cc2c1)c1cccc2[nH]cnc12` [P-2300, N-(2-phenyl-1H-pyrrolo[2,3-b]pyridin-5-yl)-1H-benzimidazole-4-carboxamide], the IC50 is less than 10 µM.

For the molecule `COc1nc(C)ccc1-c1cc2cc(NC(=O)c3[nH]nc(C)c3C)cnc2[nH]1` [P-2170, N-[2-(2-methoxy-6-methyl-3-pyridyl)-1H-pyrrolo[2,3-b]pyridin-5-yl]-3,4-dimethyl-1H-pyrazole-5-carboxamide], the IC50 is less than 10 µM.

For the molecule `Cc1[nH]nc(C(=O)Nc2cnc3[nH]c(-c4cncc(C5CC5)c4)cc3c2)c1C` [P-2243, N-(2-(5-cyclopropylpyridin-3-yl)-1H-pyrrolo[2,3-b]pyridin-5-yl)-4,5-dimethyl-1H-pyrazole-3-carboxamide], the IC50 is less than 10 µM.

`Cc1[nH]nc(C(=O)Nc2cnc3[nH]c(-c4ccnc(C(=O)NCCN(C)C)c4)cc3c2)c1C` [P-2221, 4-(5-(4,5-dimethyl-1H-pyrazole-3-carboxamido)-1H-pyrrolo[2,3-b]pyridin-2-yl)-N-(2-(dimethylamino)ethyl)picolinamide] had an IC50 of less than 10 µM.

In turn, `Cc1[nH]nc(C(=O)Nc2cnc3[nH]c(-c4cncc(F)c4)cc3c2)c1C` [P-2253, N-(2-(5-fluoropyridin-3-yl)-1H-pyrrolo[2,3-b]pyridin-5-yl)-4,5-dimethyl-1H-pyrazole-3-carboxamide] came in with an IC50 of less than 10 µM.

In turn, `COc1ccc(-c2cc3cc(NC(=O)c4[nH]nc(C)c4C)cnc3[nH]2)cc1` [P-2099, N-[2-(4-methoxyphenyl)-1H-pyrrolo[2,3-b]pyridin-5-yl]-3,4-dimethyl-1H-pyrazole-5-carboxamide] showed an IC50 of less than 10 µM.

Molecule `Cc1n[nH]c(C(=O)Nc2cnc3[nH]c(-c4ccc(C(=O)N5CCSCC5)cc4)cc3c2)c1C` [P-2105, 3,4-dimethyl-N-[2-[4-(thiomorpholine-4-carbonyl)phenyl]-1H-pyrrolo[2,3-b]pyridin-5-yl]-1H-pyrazole-5-carboxamide] displayed a half-inhibitory concentration (IC50) of less than 10 µM.

For `CCOC(=O)CCNC(=O)Nc1cnc2[nH]c(-c3ccccc3)cc2c1` [P-2006], the IC50 was less than 10 µM.

On to `Cc1n[nH]c(C(=O)Nc2cnc3[nH]c(-c4ccnc(C5CC5)c4)cc3c2)c1C` [P-2108, N-[2-(2-cyclopropyl-4-pyridyl)-1H-pyrrolo[2,3-b]pyridin-5-yl]-3,4-dimethyl-1H-pyrazole-5-carboxamide], for which the IC50 was less than 10 µM.

For `Cc1[nH]nc(C(=O)Nc2cnc3[nH]c(-c4ccnc(C(=O)NCCN5CCOCC5)c4)cc3c2)c1C` [P-2225, 4-(5-(4,5-dimethyl-1H-pyrazole-3-carboxamido)-1H-pyrrolo[2,3-b]pyridin-2-yl)-N-(2-morpholinoethyl)picolinamide], the IC50 was less than 10 µM.

Regarding `COc1ncccc1-c1cc2cc(NC(=O)c3n[nH]c(C)c3C)cnc2[nH]1` [P-2238, N-(2-(2-methoxypyridin-3-yl)-1H-pyrrolo[2,3-b]pyridin-5-yl)-4,5-dimethyl-1H-pyrazole-3-carboxamide], the IC50 was less than 10 µM.

For the molecule `CC(=O)N1CCC(n2cc(-c3cc4cc(NC(=O)c5n[nH]c(C)c5C)cnc4[nH]3)c(C)n2)CC1` [P-2202, N-(2-(1-(1-acetylpiperidin-4-yl)-3-methyl-1H-pyrazol-4-yl)-1H-pyrrolo[2,3-b]pyridin-5-yl)-4,5-dimethyl-1H-pyrazole-3-carboxamide], the IC50 is less than 10 µM.

In turn, `COc1ccc(-c2cc3cc(NC(=O)c4n[nH]c(C)c4C)cnc3[nH]2)c(OC)n1` [P-2242, N-(2-(2,6-dimethoxypyridin-3-yl)-1H-pyrrolo[2,3-b]pyridin-5-yl)-4,5-dimethyl-1H-pyrazole-3-carboxamide] registered a half-maximal inhibitory concentration (IC50) of less than 10 µM.

Consider `Cc1[nH]nc(C(=O)Nc2cnc3[nH]c(-c4ccnc(C5CCNCC5)c4)cc3c2)c1C` [P-2211, 4,5-dimethyl-N-(2-(2-(piperidin-4-yl)pyridin-4-yl)-1H-pyrrolo[2,3-b]pyridin-5-yl)-1H-pyrazole-3-carboxamide], for which the IC50 is less than 10 µM.

Consider `CCCS(=O)(=O)Nc1cccc(-c2cc3cc(NC(=O)c4[nH]nc(C)c4C)cnc3[nH]2)c1` [P-2126, 3,4-dimethyl-N-[2-[3-(propylsulfonylamino)phenyl]-1H-pyrrolo[2,3-b]pyridin-5-yl]-1H-pyrazole-5-carboxamide], for which the IC50 is less than 10 µM.

For the molecule `Cc1[nH]nc(C(=O)Nc2cnc3[nH]c(-c4ccccc4C(F)F)cc3c2)c1C` [P-2257, N-(2-(2-(difluoromethyl)phenyl)-1H-pyrrolo[2,3-b]pyridin-5-yl)-4,5-dimethyl-1H-pyrazole-3-carboxamide], the half-inhibitory concentration (IC50) is less than 10 µM.

The molecule `CC(=O)N1CCN(c2cc(-c3cc4cc(NC(=O)c5n[nH]c(C)c5C)cnc4[nH]3)ccn2)CC1` [P-2214, N-(2-(2-(4-acetylpiperazin-1-yl)pyridin-4-yl)-1H-pyrrolo[2,3-b]pyridin-5-yl)-4,5-dimethyl-1H-pyrazole-3-carboxamide] returned a half-inhibitory concentration (IC50) of less than 10 µM.

Molecule `CCc1n[nH]c(C(=O)Nc2cnc3[nH]c(-c4ccc(F)cc4)cc3c2)c1C` [P-2028, 3-ethyl-N-[2-(4-fluorophenyl)-1H-pyrrolo[2,3-b]pyridin-5-yl]-4-methyl-1H-pyrazole-5-carboxamide] yielded an IC50 of less than 10 µM.

By IC50 is commonly meant the concentration at which inhibition is half-maximal. Lower therefore signals higher potency.
